Results published in ChEMBL document CHEMBL1833797, “Microwave assisted synthesis and antimicrobial evaluation of new fused pyran derivatives bearing 2-morpholinoquinoline nucleus” (2011).
In brackets after ≈: the same amount, converted by molar mass.

Assays:
Streptococcus pneumoniae = experiment: Antimicrobial activity against Streptococcus pneumoniae MTCC 1936 for 24 hrs by microdilution method; format: functional; details: MTCC 1936, 24 h
Clostridium tetani = experiment: Antimicrobial activity against Clostridium tetani MTCC 449 for 24 hrs by microdilution method; format: functional; details: MTCC 449, 24 h
Bacillus subtilis = experiment: Antimicrobial activity against Bacillus subtilis MTCC 441 for 24 hrs by microdilution method; format: functional; details: MTCC 441, 24 h
Salmonella typhi = experiment: Antimicrobial activity against Salmonella typhi MTCC 98 for 24 hrs by microdilution method; format: functional, Salmonella enterica subsp. enterica serovar Typhi; details: Salmonella enterica, MTCC 98, 24 h
Vibrio cholerae = experiment: Antimicrobial activity against Vibrio cholerae MTCC 3906 for 24 hrs by microdilution method; format: functional; details: MTCC 3906, 24 h
Escherichia coli = experiment: Antimicrobial activity against Escherichia coli MTCC 443 for 24 hrs by microdilution method; format: functional; details: MTCC 443, 24 h
Aspergillus fumigatus = experiment: Antifungal activity against Aspergillus fumigatus MTCC 3008 for 48 hrs by microdilution method; format: functional; details: MTCC 3008, 48 h
Candida albicans = experiment: Antifungal activity against Candida albicans MTCC 227 for 48 hrs by microdilution method; format: functional; details: MTCC 227, 48 h

Row | Compound | MIC (Streptococcus pneumoniae) [mg/L] | MIC (Clostridium tetani) [mg/L] | MIC (Bacillus subtilis) [mg/L] | MIC (Salmonella typhi) [mg/L] | MIC (Vibrio cholerae) [mg/L] | MIC (Escherichia coli) [mg/L] | MIC (Aspergillus fumigatus) [mg/L] | MIC (Candida albicans) [mg/L]
1 | N#CC1=C(N)OC2=C(C(=O)CCC2)C1c1cc2ccccc2nc1N1CCOCC1 (stereo unspecified) | 100 (≈ 248 µM) | 250 (≈ 621 µM) | 100 (≈ 248 µM) | 250 (≈ 621 µM) | 250 (≈ 621 µM) | 250 (≈ 621 µM) | > 1000 | 1000 (≈ 2480 µM)
2 | COc1ccc2nc(N3CCOCC3)c(C3C(C#N)=C(N)Oc4cc(O)ccc43)cc2c1 (stereo unspecified) | 12.5 (≈ 29 µM) | 250 (≈ 581 µM) | 200 (≈ 465 µM) | 250 (≈ 581 µM) | 250 (≈ 581 µM) | 250 (≈ 581 µM) | 500 (≈ 1160 µM) | 500 (≈ 1160 µM)
3 | COC1=CC(=O)C[C@@H](C)[C@]12Oc1c(Cl)c(OC)cc(OC)c1C2=O [GRISEOFULVIN] |  |  |  |  |  |  | 100 (≈ 283 µM) | 500 (≈ 1420 µM)
4 | CC1(C)CC(=O)C2=C(C1)OC(N)=C(C#N)C2c1cc2ccccc2nc1N1CCOCC1 (stereo unspecified) | 500 (≈ 1160 µM) | 250 (≈ 581 µM) | 200 (≈ 465 µM) | 200 (≈ 465 µM) | 250 (≈ 581 µM) | 250 (≈ 581 µM) | 1000 (≈ 2320 µM) | 500 (≈ 1160 µM)
5 | Cc1ccc2nc(N3CCOCC3)c(C3C(C#N)=C(N)Oc4cc(C)oc(=O)c43)cc2c1 (stereo unspecified) | 500 (≈ 1160 µM) | 200 (≈ 465 µM) | 500 (≈ 1160 µM) | 200 (≈ 465 µM) | 200 (≈ 465 µM) | 100 (≈ 232 µM) | 200 (≈ 465 µM) | 1000 (≈ 2320 µM)
6 | CC1(C)S[C@@H]2[C@H](NC(=O)[C@H](N)c3ccccc3)C(=O)N2[C@H]1C(=O)O [AMPICILLIN] | 100 (≈ 286 µM) | 250 (≈ 715 µM) | 250 (≈ 715 µM) | 100 (≈ 286 µM) | 100 (≈ 286 µM) | 100 (≈ 286 µM) |  | 
7 | Cc1ccc2nc(N3CCOCC3)c(C3C(C#N)=C(N)Oc4c3c(=O)oc3ccccc43)cc2c1 (stereo unspecified) | 500 (≈ 1070 µM) | 250 (≈ 536 µM) | 500 (≈ 1070 µM) | 250 (≈ 536 µM) | 12.5 (≈ 26.8 µM) | 250 (≈ 536 µM) | 500 (≈ 1070 µM) | 500 (≈ 1070 µM)
8 | N#CC1=C(N)Oc2cc(O)ccc2C1c1cc2ccccc2nc1N1CCOCC1 (stereo unspecified) | 250 (≈ 624 µM) | 250 (≈ 624 µM) | 250 (≈ 624 µM) | 200 (≈ 499 µM) | 250 (≈ 624 µM) | 100 (≈ 250 µM) | > 1000 | 1000 (≈ 2500 µM)
9 | Cc1cc2c(c(=O)o1)C(c1cc3ccccc3nc1N1CCOCC1)C(C#N)=C(N)O2 (stereo unspecified) | 200 (≈ 480 µM) | 100 (≈ 240 µM) | 200 (≈ 480 µM) | 100 (≈ 240 µM) | 100 (≈ 240 µM) | 62.5 (≈ 150 µM) | 200 (≈ 480 µM) | 1000 (≈ 2400 µM)
10 | Cc1ccc2nc(N3CCOCC3)c(C3C(C#N)=C(N)OC4=C3C(=O)CCC4)cc2c1 (stereo unspecified) | 100 (≈ 240 µM) | 200 (≈ 480 µM) | 200 (≈ 480 µM) | 200 (≈ 480 µM) | 200 (≈ 480 µM) | 200 (≈ 480 µM) | > 1000 | 1000 (≈ 2400 µM)
11 | O=C(O)c1cn(C2CC2)c2cc(N3CCNCC3)c(F)cc2c1=O [CIPROFLOXACIN] | 50 (≈ 151 µM) |  |  | 25 (≈ 75.4 µM) | 25 (≈ 75.4 µM) | 25 (≈ 75.4 µM) |  | 
12 | COc1ccc2nc(N3CCOCC3)c(C3C(C#N)=C(N)OC4=C3C(=O)CC(C)(C)C4)cc2c1 (stereo unspecified) | 100 (≈ 217 µM) | 500 (≈ 1090 µM) | 100 (≈ 217 µM) | 500 (≈ 1090 µM) | 500 (≈ 1090 µM) | 500 (≈ 1090 µM) | 100 (≈ 217 µM) | 1000 (≈ 2170 µM)
13 | CCn1cc(C(=O)O)c(=O)c2cc(F)c(N3CCNCC3)cc21 [NORFLOXACIN] | 10 (≈ 31.3 µM) | 50 (≈ 157 µM) | 100 (≈ 313 µM) | 10 (≈ 31.3 µM) | 10 (≈ 31.3 µM) | 10 (≈ 31.3 µM) |  | 
14 | COc1ccc2nc(N3CCOCC3)c(C3C(C#N)=C(N)OC4=C3C(=O)CCC4)cc2c1 (stereo unspecified) | 250 (≈ 578 µM) | 500 (≈ 1160 µM) | 250 (≈ 578 µM) | 200 (≈ 462 µM) | 250 (≈ 578 µM) | 200 (≈ 462 µM) | 1000 (≈ 2310 µM) | 500 (≈ 1160 µM)
15 | Cc1ccc2nc(N3CCOCC3)c(C3C(C#N)=C(N)OC4=C3C(=O)CC(C)(C)C4)cc2c1 (stereo unspecified) | 25 (≈ 56.2 µM) | 500 (≈ 1120 µM) | 200 (≈ 450 µM) | 250 (≈ 562 µM) | 250 (≈ 562 µM) | 200 (≈ 450 µM) | 1000 (≈ 2250 µM) | 250 (≈ 562 µM)
